Experimental data reported in patent publication US8324284B2, “Migrastatin analogs and uses thereof” (Sloan-Kettering Institute for Cancer Research, priority 2003, dated 2012).
pIC50: −log10 of the molar value.

How the values were obtained:
[1] = Metabolic stability in mouse plasma; type: in vitro ADME; conditions: mouse plasma/PBS, 37° C.; for stability (t1/2, mouse plasma), in words: 60 min of incubation, stable = intensity of HPLC signal unchanged
Protocol: Mouse Plasma Stability Studies (Table 5): HPLC conditions: The sample is injected and separated using an Inertsil ODS3 6u 3×150 mm column with a mobile phase of MeCN and water (50% for migrastatin) at a flow of 0.4 mL/min, monitored at 220 nm at 0.02 AUFS (the retention time for migrastatin is ca. 4 min, the identity of this peak was confirmed by mass spectral analysis). Incubation and sample preparation conditions: A solution (ca. 30 mM) of chemical compound (Table 5) in DMSO is prepared. 2 μL of the solution is added to a mixture containing 200 μL of mouse plasma and 800 μL of PBS. The resulting solution is put into a water bath at 37° C., and 100 μL of sample is withdrawn at 10, 20, 30, 45, and 60 min. The precipitate is removed by centrifugation and 20 μL of the supernatant is injected onto the HPLC.

[2] = tested on: 4T1 mouse breast tumor cells; experiment: Wound-healing assay with 4T1 cells; type: cell-based; conditions: with serum, 200 μM, overnight
From the text: In the wound healing assay, standard scratches (i.e., wounds) were made through a confluent 4T1 cell layer. In the absence of serum, cells would not migrate across the empty space created by application of the scratch. Upon addition of serum containing migration-enabling factors, migration of 4T1 cells across the scratch was induced. Exposure to these cells to inventive compounds allowed the evaluation of the cell migration inhibitory activity of these compounds.
Wound-Healing Assay (See FIG. 6). 4T1 mouse breast tumor cells in RPMI-1640 medium containing 10% fetal bovine serum (FBS) were seeded into wells of 24-multiwell plates (Becton-Dickinson). After cells grew to confluence, wounds were made with sterile pipette tips. Cells were washed with Phosphate Buffered Saline (PBS) and refreshed with growth medium containing different concentrations of chemical compounds. After overnight incubation at 37° C., cells were fixed and photographed.

[3] = tested on: 4T1 tumor cells; experiment: Cell proliferation assay (MTT); conditions: up to 20 μM, 48 h
Protocol: Cell Proliferation Assay: 4×10^4 of 4T1 tumor cells in RPMI-1640 medium containing 10% FBS were seeded into wells of 96-multiwell plates (Becton-Dickinson) in the presence or absence of chemical compounds and then incubated at 37° C. for 48 h. An MTT kit (Cell Proliferation Kit I, Roche) (a colorimetric assay) was used to quantify cell proliferation and viability. The number of living cells, thus the total metabolic activity, directly correlates to the amount of purple formazan crystals formed (monitored by the absorbance).

[4] = tested on: HUVEC; experiment: Tube formation assay; type: cell-based, human; conditions: minimal concentration causing definite disturbance of tube network; 16-18 h; tested 200, 100, 50, 25, 10 μM
Protocol: A protocol was designed based on the instructions from the provider (BD Bioscience, San Jose, Calif.). Briefly, wells of a 48 well culture dish were covert with 150 μL matrigel and the matrigel was gelatinized for 30 min at 37° C. A 80-90% confluent HUVEC (BD Bioscience, San Jose, Calif.) culture was trypsin treated, the detached cells were collected by centrifugation and resuspended in EGM-2 media (BD Bioscience, San Jose, Calif.). Cell concentration was adjusted to 100.000 cells/mL. 400 μL of the cell suspension were filled in the matrigel coated wells, and a solution of the inhibitor was added to the intended final concentration. The plates were incubated at 37° C. with 5% CO2 for 16-18 h. Media was removed, and the matrigel surface was washed twice with 500 μL PBS before cells were labeled with 250 μL […] Calcein AM (Pierce, Rockford, Ill.) in PBS for 30 min at 37° C. After two additional washing steps (500 μL PBS) cells were visualized under an inverted microscope. Fluorescence was excited at 488 nm and recorded at 538 nm. The minimum effect concentration was defined as the minimal inhibitor concentration that caused a definite disturbance of the complexity of the formed tube network.

[5] = tested on: KYSE-520 cells; experiment: Wound healing (scratch) assay; type: cell-based; conditions: 28 to 30 h, tested 200, 100, 50, 25, 10 μM
Protocol: The wound healing assay was performed based on the method described by Nakae et al. (Nakae et al., J. Antibiotics (2000), 53, 1130-1136). Briefly, adherent cells were grown in a suitable media to confluence (e.g. KYSE-520 cells in RPMI-1640 with 10% FBS). Cells were starved for 24 h in serum free media. A scratch (ca. 0.5 mm) was applied and the cell layer was washed twice with PBS after removal of the media. Fresh, serum free media with the test compound at the desired concentration was added and the cells were incubated for 28 to 30 h at 37° C., 5% CO2. The scratch size was compared to that observed for cells exposed to 100 μM Migrastatin. Test compounds associated with a scratch size equal to or larger than that observed for cells exposed to 100 μM Migrastatin were deemed to have cell migration inhibitory activity at least equal to Migrastatin.

[6] = tested on: cell migration; experiment: Chamber cell migration assay (preliminary); type: cell-based; conditions: 36 h, tested 200, 100, 50, 25, 10 μM
Protocol: Cells were grown in an appropriate media to 70 to 80% confluence and incubated in serum and growth factor free media for 24 h. Cells were detached by trypsin treatment, collected by centrifugation and resuspended in serum free media to a final concentration of 150,000 cells/mL. 400 μL of the cell suspension were loaded into a fibronectin coated insert for 24 well multidishes. 750 μL fully supplemented media were applied to the compartment under the insert. To both chambers the inhibitor was added at the intended concentration and the plates were incubated for 36 h at 37° C., 5% CO2. […] The resulting CyQuant assay solution was transferred to the cavities of a 96 well microtiter plate and the fluorescence signal was recorded in an appropriate reader. The CyQuant dye forms a highly fluorescent complex with DNA, thus the fluorescence signal is proportional to the number of cells that migrated through the membrane in the presence of the test compound (N^inh). […] The positive control fluorescent reading correlates with the number of cells that migrate through the membrane in the absence of inhibitor (N^+). […] The negative control fluorescent reading correlates with the number of cells that migrate through the membrane through non-directed processes (N^−). The anti-migratory effect of a test compound is determined by the ratio (N^inh−N^−)/(N^+−N^−).

[7] = tested on: 4T1 tumor lung metastasis; experiment: 4T1 tumor lung metastasis in syngeneic mice; type: in vivo, mouse; conditions: mean and standard deviation
Protocol: (§1) Female BALB/c mice (6-8 week old) were purchased from the Jackson Laboratory (Bar Harbor, Me.). All mice were housed at the Weill Medical College of Cornell University Animal Facilities in accordance with the Principles of Animal Care (NIH publication no. 85-23, revised 1985). 4T1 tumor cells (1×10^5) were injected subcutaneously into the abdominal mammary gland area of mice in 0.1 ml of a single-cell suspension in phosphate buffered saline (PBS) on Day 0. The dosage of tumor implantation was empirically determined to give rise to tumor of ˜10 mm in diameter in untreated wild type mice in 21-23 days. On Day 7, when the tumors averaged in size ˜4-5 mm in diameter, migrastatin analogs or control PBS saline were given every day by intraperitoneal injection at 10 mg/kg or 20 mg/kg per mouse until Day 25. On Day 28, the mice were sacrificed. This regiment of migrastatin analogs was well tolerated with no signs of overt toxicity. Every group included five mice. Primary tumors were measured using electronic calipers on the day when the mice were sacrificed. Tumor size was the square root of the product of two perpendicular diameters. Numbers of metastatic 4T1 cells in lung were determined by the clonogenic assay.^63 In brief, lungs were removed from each mouse on Day 28, finely minced and digested in 5 ml of enzyme cocktail containing 1×PBS and 1 mg/ml collagenase type IV for 2 hours at 37° C. on a platform rocker. After incubation, samples were filtered through 70 uM nylon cell strainers and washed twice with PBS. Resulting cells were suspended and plated serially diluted in 10 cm tissue culture dishes in medium RPMI1640 containing 60 uM thioguanine for clonogenic growth. 6-Thioguanine-resistant tumor cells formed foci after 14 days, at which time they were fixed with methanol and stained with 0.03% methylene blue for counting.
Treatment 4T1 tumor lung metastasis in syngeneic mice with migrastatin analogs (See, FIG. 4). 4T1 tumor cells (10^5) were injected s.c. in the abdominal mammary gland with 0.1 ml of a single-cell suspension. Macroketone or macrolactam at 10 mg/kg or 20 mg/kg was given i.p. on Day 7 when the tumor size was about 5 mm in diameter, and every day until Day 25. On Day 28, the mice were sacrificed. Each group comprised five mice. Lung metastasis was measured by the 6-thiogunine clonogenic assay. The mean and standard deviation are presented. In the control group (daily PBS injection), there were 61300±18900 colonies.

[8] = tested on: 4T1 tumors; experiment: 4T1 primary tumor growth in mice; type: in vivo, mouse; conditions: 10 mg/kg i.p. daily Day 7-25, final tumor size Day 28
Protocol: as §1, with “This regiment of migrastatin analogs was well tolerated with no signs of overt toxicity. Every group included five mice.” left out, “Tumor size was the square root of the product of two perpendicular diameters.” left out, “After incubation, samples were filtered through 70 uM nylon cell strainers and washed twice with PBS. Resulting cells were suspended and plated serially diluted in 10 cm tissue culture dishes in medium RPMI1640 containing 60 uM thioguanine for clonogenic growth. 6-Thioguanine-resistant tumor cells formed foci after 14 days, at which time they were fixed with methanol and stained with 0.03% methylene blue for counting.” left out
Effect of migrastatin analogs on 4T1 tumor cell growth (See, FIG. 5). […] On Day 28, primary tumors were measured using electronic calipers. […]

Row | SMILES | stability (t1/2, mouse plasma) [1] [min] | stability (t1/2, mouse plasma), in words [1] | inhibition of 4T1 cell migration across the scratch [2] | cytotoxic or anti-proliferative effects on 4T1 cells [3] | Minimum effect concentration [4] [µM] | Minimum effect concentration [5] [µM] | pIC50 [6] | stability (t1/2, mouse plasma), in words ([1]; listed as migrastatin) | lung metastasis, colonies (6-thioguanine clonogenic assay) ([7]; 10 mg/kg i.p. daily Day 7-25, Day 28) [colonies] | lung metastasis, colonies (6-thioguanine clonogenic assay) ([7]; 20 mg/kg i.p. daily Day 7-25, Day 28) [colonies] | effect on tumor growth in mice [8]
1 | COC1C=CCCCCC(=O)OCC(C)=CC(C)C1O (stereo not shown) [macrolactone (48), Macrolactone] | <5 | hydrolyzed rapidly | almost completely inhibited cell migration across the scratch | did not have any cytotoxic or anti-proliferative effects up to 20 μM | – | – | – | – | – | – | –
2 | CO[C@H]1/C=C/CC/C=C/C(=O)O[C@H]([C@H](C)C(=O)CCCC2CC(=O)NC(=O)C2)/C(C)=C\[C@@H](C)[C@@H]1O [migrastatin (1), Migrastatin] | – | stable^1 | not as great | – | 100 | 100 | 3.70 | completely inert toward lactone opening | – | – | –
3 | COC1C=CCCCCC(=O)CCC(C)=CC(C)C1O (stereo not shown) [macroketone (60), Macroketone] | – | – | – | – | – | – | – | – | 3875±2525 | 650±575 | minor effect on tumor growth
